The structures appear in SMILES notation.

These results are taken from patent US9115137B2, “2,3,4,5-tetrahydro-1H-pyrido[4,3-B]indole compounds and methods of use thereof” (priority 2008, dated 2015).

Test [1] deals with T1, human recombinant histamine H1 receptor (Homo sapiens, UniProt P35367).
T1 construct: expressed in transfected cells; host or cells: CHO cells
The experiment in a line: Histamine H1 radioligand binding ([3H]Pyrilamine). The settings on record: compound at 1 μM; CHO cells; read-out: Histamine Binding (1 μM) H1, percent inhibition of specific binding. Here is the method:
To evaluate in radioligand binding assays the activity of compounds of the invention, human recombinant histamine H1 receptor expressed in Chinese hamster ovary (CHO) cells (De Backer, M. D. et al., Biochem. Biophys. Res. Comm. 197(3):1601, 1993) in a modified Tris-HCl buffer (50 mM Tris-HCl, pH 7.4, 2 mM MgCl2, 100 mM NaCl, 250 mM Sucrose) was used. Compounds of the invention were incubated with 1.2 nM [^3H]Pyrilamine for 180 minutes at 25° C. Non-specific binding was estimated in the presence of 1 μM pyrilamine. Receptor proteins were filtered and washed, the filters were then counted to determine [^3H]Pyrilamine specifically bound. Compounds were screened at 1 μM, using 1% DMSO as vehicle. Biochemical assay results are presented as the percent inhibition of specific binding in Table 5.

Test [2] deals with T2, human recombinant dopamine D2L receptor (Homo sapiens, UniProt P14416).
T2 construct: expressed in transfected cells; host or cells: CHO cells
The test can be described thus: Dopamine D2L radioligand binding ([3H]Spiperone). Particulars: compound at 1 μM; CHO cells; read-out: Dopamine (1 μM) D2L, percent inhibition of specific binding. Here is the method: To evaluate in radioligand binding assays the activity of compounds of the invention, human recombinant dopamine D2L receptor expressed in Chinese hamster ovary (CHO) cells (Grandy, D. K. et al. Proc. Natl. Acad. Sci. USA. 86:9762, 1989; Hayes, G. et al., Mol. Endocrinol. 6:920, 1992) in a modified Tris-HCl buffer (50 mM Tris-HCl, pH 7.4, 1.4 mM Ascorbic Acid, 0.001% BSA, 150 mM NaCl) was used. Compounds of the invention were incubated with 0.16 nM [^3H]Spiperone for 120 minutes at 25° C. Non-specific binding was estimated in the presence of 10 μM Haloperidol. Receptor proteins were filtered and washed, the filters were then counted to determine [^3H]Spiperone specifically bound. Compounds were screened at 1 μM or lower, using 1% DMSO as vehicle. Biochemical assay results are presented as the percent inhibition of specific binding in Table 6.

For test [3], the target named is T3, human recombinant serotonin (5-Hydroxytryptamine) 5-HT2C receptor (Homo sapiens, UniProt P28335).
T3 construct: expressed in transfected cells; host or cells: CHO-K1 cells
T3 sequence (P28335 33-458): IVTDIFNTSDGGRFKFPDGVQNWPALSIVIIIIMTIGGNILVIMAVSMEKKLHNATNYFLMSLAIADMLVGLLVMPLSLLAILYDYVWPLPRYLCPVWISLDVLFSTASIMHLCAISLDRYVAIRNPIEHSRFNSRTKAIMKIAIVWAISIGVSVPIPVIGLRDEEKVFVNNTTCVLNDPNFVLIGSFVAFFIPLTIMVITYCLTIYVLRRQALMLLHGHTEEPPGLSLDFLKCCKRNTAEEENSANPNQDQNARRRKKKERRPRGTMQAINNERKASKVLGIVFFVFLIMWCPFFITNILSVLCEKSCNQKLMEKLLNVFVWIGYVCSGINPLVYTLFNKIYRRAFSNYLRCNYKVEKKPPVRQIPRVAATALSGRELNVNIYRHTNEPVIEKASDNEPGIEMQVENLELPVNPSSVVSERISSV
The test can be described thus: Serotonin 5-HT2C radioligand binding ([3H]Mesulergine). The settings on record: compound at 1 μM; CHO-K1 cells; read-out: Serotonin (1 μM) 5-HT2C, percent inhibition of specific binding. On the procedure: To evaluate in radioligand binding assays the activity of compounds of the invention, human recombinant serotonin (5-Hydroxytryptamine) 5-HT2C receptor expressed in Chinese hamster ovary (CHO-K1) cells (Wolf, W. A. and Schutz, J. S., J. Neurochem. 69:1449, 1997) in a modified Tris-HCl buffer (50 mM Tris-HCl, pH 7.4, 0.1% Ascorbic Acid, 10 μM Pargyline) was used. Compounds of the invention were incubated with 1 nM [^3H]Mesulergine for 60 minutes at 25° C. Non-specific binding was estimated in the presence of 1 μM Mianserin. Receptor proteins were filtered and washed, the filters were then counted to determine [^3H]Mesulergine specifically bound. Compounds were screened at 1 μM or lower, using 1% DMSO as vehicle. Biochemical assay results are presented as the percent inhibition of specific binding in Table 7.

The target of test [4] is T4, human recombinant serotonin (5-Hydroxytryptamine) 5-HT6 receptor (Homo sapiens, UniProt P50406).
T4 construct: expressed in transfected cells; host or cells: human HeLa cells
The test can be described thus: Serotonin 5-HT6 radioligand binding ([3H]LSD). Particulars: compound at 1 μM; HeLa cells; read-out: Serotonin (1 μM) 5-HT6, percent inhibition of specific binding. On the procedure: To evaluate in radioligand binding assays the activity of compounds of the invention, human recombinant serotonin (5-Hydroxytryptamine) 5-HT6 receptor expressed in human HeLa cells (Monsma, F. J. Jr. et al., Mol. Pharmacol. 43:320, 1993) in a modified Tris-HCl buffer (50 mM Tris-HCl, pH 7.4, 150 mM NaCl, 2 mM Ascorbic Acid, 0.001% BSA) was used. Compounds of the invention were incubated with 1.5 nM [3H]Lysergic acid diethylamide (LSD) for 120 minutes at 37° C. Non-specific binding was estimated in the presence of 5 μM Serotonin (5-HT). Receptor proteins were filtered and washed, the filters were then counted to determine [3H]LSD specifically bound. Compounds were screened at 1 μM or lower, using 1% DMSO as vehicle. Biochemical assay results are presented as the percent inhibition of specific binding in Table 7.

T4 sequence (P50406 whole entry): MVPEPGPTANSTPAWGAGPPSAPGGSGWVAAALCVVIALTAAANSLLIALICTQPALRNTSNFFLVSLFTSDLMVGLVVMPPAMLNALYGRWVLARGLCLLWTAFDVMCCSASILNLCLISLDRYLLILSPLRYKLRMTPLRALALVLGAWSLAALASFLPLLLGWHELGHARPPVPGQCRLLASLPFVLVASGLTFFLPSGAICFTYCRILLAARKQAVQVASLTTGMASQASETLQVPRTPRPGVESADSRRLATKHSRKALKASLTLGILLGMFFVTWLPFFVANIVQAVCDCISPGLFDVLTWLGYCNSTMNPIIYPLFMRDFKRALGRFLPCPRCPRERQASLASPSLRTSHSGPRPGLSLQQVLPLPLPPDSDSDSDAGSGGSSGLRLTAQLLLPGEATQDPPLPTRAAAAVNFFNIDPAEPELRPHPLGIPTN
T1 sequence (P35367 whole entry): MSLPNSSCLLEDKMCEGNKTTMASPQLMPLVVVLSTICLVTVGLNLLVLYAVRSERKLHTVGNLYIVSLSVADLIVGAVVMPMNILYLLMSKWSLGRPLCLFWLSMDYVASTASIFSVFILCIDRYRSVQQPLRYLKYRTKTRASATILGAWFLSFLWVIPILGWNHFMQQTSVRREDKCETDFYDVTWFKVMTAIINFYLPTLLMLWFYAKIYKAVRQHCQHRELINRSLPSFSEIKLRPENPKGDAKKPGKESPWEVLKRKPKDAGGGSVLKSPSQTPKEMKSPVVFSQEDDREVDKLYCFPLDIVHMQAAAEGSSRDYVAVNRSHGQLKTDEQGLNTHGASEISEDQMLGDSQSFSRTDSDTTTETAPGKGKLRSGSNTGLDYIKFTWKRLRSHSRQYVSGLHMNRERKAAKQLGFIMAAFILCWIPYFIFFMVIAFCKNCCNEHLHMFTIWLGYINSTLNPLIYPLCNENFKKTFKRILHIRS
T2 sequence (P14416 whole entry): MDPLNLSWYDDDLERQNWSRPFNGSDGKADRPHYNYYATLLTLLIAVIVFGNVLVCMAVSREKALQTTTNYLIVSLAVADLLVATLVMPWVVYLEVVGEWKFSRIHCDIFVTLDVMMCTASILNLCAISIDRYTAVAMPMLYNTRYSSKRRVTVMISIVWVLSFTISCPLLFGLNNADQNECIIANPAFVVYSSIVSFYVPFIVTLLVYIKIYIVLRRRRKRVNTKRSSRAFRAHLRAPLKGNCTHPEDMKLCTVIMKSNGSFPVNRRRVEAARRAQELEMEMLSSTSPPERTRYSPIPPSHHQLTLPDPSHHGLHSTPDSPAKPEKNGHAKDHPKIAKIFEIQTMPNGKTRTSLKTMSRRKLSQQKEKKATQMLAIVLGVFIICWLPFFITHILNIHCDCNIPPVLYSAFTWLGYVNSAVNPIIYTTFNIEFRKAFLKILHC

As for `Cc1ccc2c(c1)c1c(n2CC(=O)NC(C)C)CCN(C)C1` [Compound 23, 2-(1,2,3,4-tetrahydro-2,8-dimethylpyrido[4,3-b]indol-5-yl)-N-isopropylacetamide], the inhibition (usually the drop in the measured response relative to a control, in per cent) at 1 µM in test [1] came out at 65%; in test [2], 5%; in test [3] it was 37%; in test [4] it was 3%.
The corresponding values for `Cc1ccc2c(c1)c1c(n2CC(=O)NC(C)(C)C)CCN(C)C1` [Compound 24, N-tert-butyl-2-(1,2,3,4-tetrahydro-2,8-dimethylpyrido[4,3-b]indol-5-yl)acetamide] are 44%, 3%, 21% and 6%.
Take `Cc1ccc2c(c1)c1c(n2CC(=O)NCc2ccccc2)CCN(C)C1` [Compound 25, N-benzyl-2-(1,2,3,4-tetrahydro-2,8-dimethylpyrido[4,3-b]indol-5-yl)acetamide]: the inhibition at 1 µM is 72% in test [1], -3% in test [2], 61% in test [3] and 58% in test [4].
On to `Cc1ccc2c(c1)c1c(n2CC(=O)NCC2CCCCC2)CCN(C)C1` [Compound 26, N-(cyclohexylmethyl)-2-(1,2,3,4-tetrahydro-2,8-dimethylpyrido[4,3-b]indol-5-yl)acetamide], for which the inhibition at 1 µM in test [1] was 66%; in test [2], -4%; in test [3] it was 54%; in test [4], 34%.
As to `CN1CCc2c(c3cc(Cl)ccc3n2CC(=O)NC2CCCC2)C1` [Compound 27, 2-(8-chloro-1,2,3,4-tetrahydro-2-methylpyrido[4,3-b]indol-5-yl)-N-cyclopentylacetamide], the inhibition at 1 µM in test [1] was 63%; in test [2], -2%; in test [3], 28%; in test [4] it was 13%.
The corresponding values for `Cc1ccc2c(c1)c1c(n2CCC(=O)NC(C)(C)C)CCN(C)C1` [Compound 28] are 21%, -1%, 35% and 47%.
The corresponding values for `Cc1ccc2c(c1)c1c(n2CCC(=O)Nc2ccccc2)CCN(C)C1` [Compound 29] are 84%, 2%, 73% and 43%.
The corresponding values for `Cc1ccc2c(c1)c1c(n2CCC(=O)NCC2CCCCC2)CCN(C)C1` [Compound 30, N-(cyclohexylmethyl)-3-(1,2,3,4-tetrahydro-2,8-dimethylpyrido[4,3-b]indol-5-yl)propanamide] are 18%, 7%, 93% and 18%.
Turning to `CN1CCc2c(c3cc(Cl)ccc3n2CCC(=O)NC2CCCC2)C1` [Compound 31, 3-(8-chloro-1,2,3,4-tetrahydro-2-methylpyrido[4,3-b]indol-5-yl)-N-cyclopentylpropanamide], the inhibition at 1 µM in test [1] is 45%; in test [2], 9%; in test [3], 76%; in test [4], 34%.
In the case of `CN1CCc2c(c3cc(Cl)ccc3n2CC(N)=O)C1` [Compound 45, 2-(8-chloro-1,2,3,4-tetrahydro-2-methylpyrido[4,3-b]indol-5-yl)acetamide], the inhibition at 1 µM is 82% in test [1], 7% in test [2], 52% in test [3] and 5% in test [4].
The corresponding values for `Cc1ccc2c(c1)c1c(n2CCC(N)=O)CCN(C)C1` [Compound 46, 3-(1,2,3,4-tetrahydro-2,8-dimethylpyrido[4,3-b]indol-5-yl)propanamide] are 52%, 4%, 65% and 11%.
The corresponding values for `Cc1ccc2c(c1)c1c(n2CCC(=O)Nc2ccc(F)cc2)CCN(C)C1` [Compound 47, N-(4-fluorophenyl)-3-(1,2,3,4-tetrahydro-2,8-dimethylpyrido[4,3-b]indol-5-yl)propanamide] are 90%, -3%, 90% and 63%.
For `CN1CCc2c(c3cc(Cl)ccc3n2CC(=O)N(C)C)C1` [Compound 48, 2-(8-chloro-1,2,3,4-tetrahydro-2-methylpyrido[4,3-b]indol-5-yl)-N,N-dimethylacetamide], in that order: 73%, -6%, 37% and 12%.
In the case of `CN1CCc2c(c3cc(Cl)ccc3n2CCC(=O)N(C)C)C1` [Compound 49, 3-(8-chloro-1,2,3,4-tetrahydro-2-methylpyrido[4,3-b]indol-5-yl)-N,N-dimethylpropanamide], the inhibition at 1 µM amounted to 82% in test [1], 9% in test [2], 47% in test [3] and 24% in test [4].
On to `Cc1ccc2c(c1)c1c(n2CCNC(=O)c2ccncc2)CCN(C)C1` [Compound 50, N-(2-(1,2,3,4-tetrahydro-2,8-dimethylpyrido[4,3-b]indol-5-yl)ethyl)isonicotinamide], for which the inhibition at 1 µM in test [1] was 47%; in test [2], 7%; in test [3], 35%; in test [4] it was -1%.
The corresponding values for `Cc1ccc2c(c1)c1c(n2CC(=O)Nc2ccc(F)cc2)CCN(C)C1` [Compound 51, N-(4-fluorophenyl)-2-(1,2,3,4-tetrahydro-2,8-dimethylpyrido[4,3-b]indol-5-yl)acetamide] are 85%, 19%, 70% and 30%.
The corresponding values for `CCCCOC(=O)Cn1c2c(c3cc(Cl)ccc31)CN(C)CC2` [Compound 52, butyl 2-(8-chloro-1,2,3,4-tetrahydro-2-methylpyrido[4,3-b]indol-5-yl)acetate] are 98%, 22%, 85% and 83%.
With `Cc1ccc2c(c1)c1c(n2CCC(=O)NC(C)C)CCN(C)C1` [Compound 53], the inhibition at 1 µM in test [1] is 51%; in test [2] it was -2%; in test [3], 51%; in test [4] it was 22%.
